Experimental data taken from patent US10774082B2, “Quinazoline compound” (Astellas Pharma Inc., priority 2017, dated 2020).
Where two headings read alike, the source gives them in different places.

Legend:
NCI-H1373 cells = assay: Anchorage-independent cell proliferation inhibitory action, NCI-H1373 spheroid three-dimensional culture; format: cell-based, Human; details: Homo sapiens, NCI-H1373, 144 h, read-out: IC50 (anchorage-independent cell proliferation inhibition)
Description: Evaluation of Anchorage-Independent Cell Proliferation Inhibitory Action with Respect to Human KRAS G12C Mutation Positive Non-Small Cell Lung Cancer Strain NCI-H1373
An anchorage-independent cell proliferation inhibitory action by the test compound was evaluated by a spheroid three-dimensional culture.
NCI-H1373 cells were seeded in cell low adsorption U bottom 384 well plates (Prime Surface: Sumitomo Bakelite Co., Ltd.) at 36 μL/well each so as to be 5×10^2 cell per well. The cell culture was performed under the same conditions as Test example 2.
The next day, the test compounds (six points in a range of final concentration 1,000 nM to 0.3 nM) and DMSO which is a solvent of the test compound as a negative control were diluted 100-fold with fresh medium, 4 μL each was added to each well. After culturing at 37° C. in the presence of 5% CO2 for six days, 20 μL of CellTiter Glo or to CellTiter Glo 2.0 (Promega Corporation) was added to each well. After stirring for one hour at room temperature using a plate mixer (FINEPCR), an emission signal was measured with ARVO X3 (PerkinElmer Co., Ltd.).
When a signal value in a DMSO treatment was set as 0% inhibition, and a signal value in cell-free medium only was set as 100% inhibition, a value of 50% inhibition (IC50) was calculated through Sigmoid-Emax model nonlinear regression analysis.

[1] = system: ERK phosphorylation (Thr 202/Tyr 204) in NCI-H1373 cells; assay: ERK phosphorylation inhibitory action in NCI-H1373 (Cell ELISA); format: cell-based, Human; details: Homo sapiens, NCI-H1373, 2 h, read-out: IC50 (ERK phosphorylation inhibition)
Description: Evaluation of ERK Phosphorylation Inhibitory Action with Respect to Human KRAS G12C Mutation Positive Non-Small Cell Lung Cancer Strain NCI-H1373
The ERK phosphorylation inhibitory action by the test compound was evaluated by measuring phosphorylation of 202th threonine (Thr 202) and 204th tyrosine (Tyr 204) of ERK on the downstream of the KRAS signal by Cell ELISA.
NCI-H1373 cells (ATCC, CRL-5866) were seeded in 384 well plates (Greiner bio-one) at 36 μL/well each so as to be 2×10^4 cell per well. Cell culture was performed under the conditions of temperature of 37° C. in the presence of 5% CO2 by using RPMI 1640 medium (Sigma-Aldrich Co. LLC) containing 10% fetal bovine serum (GE Life Sciences).
The next day, the test compounds (six points in a range of final concentration 1,000 nM to 0.3 nM), final concentration 1 μM of Trametinib (GlaxoSmithKline Inc.; MEK inhibitor) as a positive control, and DMSO which is a solvent of the test compound as a negative control were diluted 100-fold with fresh medium, 4 μL each was added to each well, and then cultured for 2 hours. Immediately after culturing, 30 μL of 30% glyoxal solution (Wako: 40% glyoxal diluted with Phosphate Buffered Saline (PBS; Wako)) was added to each well, and the cells were left to stand at room temperature for one hour to be fixed. Thereafter, the supernatant was removed by centrifuging the plate (110×g for 7 seconds, unless otherwise stated below under the same conditions), and 20 μL of PBS containing 0.1% Triton X-100 (Amersham Biosciences Corp.) was added to each well. After being left to stand at room temperature for 10 minutes, the supernatant was removed by centrifugation, and the same operation was repeated. Next, 20 μL of PBS containing 0.5% SDS (Invitrogen) was added to each well, and the mixture was left to stand at room temperature for 30 minutes, and then centrifuged to remove the supernatant. Subsequently, 20 μL of a blocking solution (ODYSSEY Blocking Buffer; LI-COR Biosciences) was added to each well, and left to stand at room temperature for one hour. The supernatant was removed by centrifugation, and 10 μL of a blocking solution prepared by diluting ERK (Thr 202/Tyr 204) of a phosphorylation antibody (Cell Signaling Technology, Inc.) as a primary antibody to be ½, 500 amount with respect to a stock solution was added to each well and was left to stand at 4° C. for overnight.
The next day, a reaction liquid is removed by centrifuging the plate, 20 μL of 0.05% Tween-20-containing PBS (Thermo Scientific; 20×PBS Tween-20 diluted 20-fold with ion exchanged water) was added to each well, and each well was washed by removing the supernatant by centrifugation. Washing was performed three times in total. After washing, 10 μL of a blocking solution prepared by diluting IRDye 800CW Goat anti-Rabbit IgG (LI-COR Biosciences) as a secondary antibody to be 1/1,000 amount with respect to a stock solution was added to each well and was left to stand at room temperature for one hour. The reaction liquid was removed by centrifuging the plate, and each well was washed three times with 0.05% Tween-20-containing PBS in the same manner as after primary antibody reaction. The centrifugation after the third wash was 171×g for 17 seconds. After removal of the cleaning solution, the plate was left to air dry at room temperature for three hours or more and the fluorescent signal at 800 nm was measured by Aerius (LI-COR Biosciences).
When a signal value at the time of adding DMSO was set as 0% inhibition, and a signal value at the time of adding 1 μM of Trametinib was set as 100% inhibition, a value of 50% inhibition (IC50) was calculated through Sigmoid-Emax model nonlinear regression analysis.

[2] = target: T1, KRAS G12C/SOS/c-Raf complex (Homo sapiens, UniProt P01116, G12C); assay: KRAS G12C/SOS/c-Raf complex formation inhibitory action (TR-FRET); format: biochemical; details: one hour at room temperature, read-out: IC50 (KRAS G12C/SOS/c-Raf complex formation inhibition)
T1 construct: Biotinylated AviTag-KRAS G12C (amino acid region 1-185, GDP)
Description: Evaluation of KRAS G12C/SOS/c-Raf Complex Formation Inhibitory Action
Human Recombinant KRAS G12C, SOS, and c-Raf protein were used, and with respect to the complex formation of these proteins, an inhibitory action of the test compound was examined through a time-resolved fluorescence resonance energy transfer (TR-FRET) method.
Biotinylated AviTag-KRAS G12C (amino acid region 1-185, GDP) (2.5 μL; 400 nM) dissolved in assay buffer (50 mM HEPES, 150 mM NaCl, 5 mM MgCl2, 0.05% Tween 20, pH 7.4) and test compound were added in a volume of 2.5 μL from 4,000 nM to 4 nM were added to 384 well plate (Corning Inc). Son of Sevenless (SOS) (amino acid region 564-1049, 2.5 μL; 1.3 μM) and c-Raf (amino acid region 51-131) GST containing GTP (Sigma-Aldrich Co. LLC) (2.5 μL; 130 nM and 4 μM of each) were added to the above mixture, and the resultant was left to stand for one hour at room temperature. Thereafter, a mixed solution (10 μL) of LANCE Ulight-anti-GST (120 nM, PerkinElmer. Co., Ltd) and LANCE Eu-W1024 labeled Streptoavidin (100 ng/mL, PerkinElmer. Co., Ltd) was added, and a fluorescence intensity on the condition of wavelength of 620 nm and 665 nm was measured by using EnVision 2103 Multilabel Reader (PerkinElmer Co., Ltd.) under the condition of excitation wavelength of 337 nm. […] In Tables, Ex represents Example numbers described later. In addition, in Tables, Compound C represents a test compound of Example I-59 disclosed in Pamphlet of International Publication No. WO 2016/164675, and the structures of Reference Example 1 and Reference Example 2 are indicated in Table 168 described below (the same shall apply hereinafter).

[3] = NCI-H1373 spheroid, six days, CellTiter Glo
[4] = NCI-H1373 cells, cultured for 2 hours, 100% = 1 μM Trametinib

T1 sequence (P01116 1-185 isoform P01116-2 G12C, one chain of several): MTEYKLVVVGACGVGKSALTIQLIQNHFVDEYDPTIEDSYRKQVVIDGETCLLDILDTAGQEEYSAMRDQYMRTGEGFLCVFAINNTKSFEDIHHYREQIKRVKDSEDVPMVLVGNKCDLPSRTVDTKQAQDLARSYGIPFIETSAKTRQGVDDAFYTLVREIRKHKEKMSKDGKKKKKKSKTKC

Compound	IC50 (NCI-H1373 cells; [3]) [nM]	IC50 [1, 4] [nM]	IC50 [2] [nM]	IC50 (NCI-H1373 cells) [nM]	IC50 [1] [nM]
C=CC(=O)N1CC2(CCN(c3nc(OC4CCN(C)CC4C)nc4c(OCC(F)(F)F)c(-c5c(C)ccc6[nH]ncc56)c(C=C)cc34)CC2)C1 (stereo not drawn) [Example 48]	15	5.9	54		
C=CC(=O)N1CC2(CCN(c3nc(OC4CCN(C)CC4)nc4c(OCc5ccc(C)cc5)c(-c5c(C)ccc6[nH]ncc56)c(C=C)cc34)CC2)C1 [Example 58]	17	8.4	57		
C=CC(=O)N1CC2(CCN(c3nc(OC4CCN(CCOC)CC4)nc4c(OC(F)F)c(-c5c(C)ccc6[nH]ncc56)c(C=C)cc34)CC2)C1 [Example 53]	9.8	6.8	37		
C=CC(=O)N1CC2(CCN(c3nc(OC4CCN(CCC(F)(F)F)CC4)nc4c(OCC(F)(F)F)c(-c5c(C)ccc6[nH]ncc56)c(C=C)cc34)CC2)C1 [Example 60]	35	8.8	98		
C=CC(=O)N1CC2(CCN(c3nc(OC4CCN(CCC#N)CC4)nc4c(OCC)c(-c5c(C)ccc6[nH]ncc56)c(C5CC5)cc34)CC2)C1 [Example 54]	6.8	7.2	60		
C=CC(=O)N1CC2(CCN(c3nc(OC4CCN(CCS(C)(=O)=O)CC4)nc4c(OCC(F)(F)F)c(-c5c(C)ccc6[nH]ncc56)c(C=C)cc34)CC2)C1 [Example 81]	26	16	41		
C=CC(=O)N1CC2(CCN(c3nc(OC4CCN(CC)CC4)nc4c(OCC)c(-c5c(Cl)ccc6[nH]ncc56)c(C=C)cc34)CC2)C1 [Example 21]	27	14	65		
C=CC(=O)N1CC2(CCN(c3nc(NC4CCN(C)CC4)nc4c(OCC(F)(F)F)c(-c5c(C)ccc6[nH]ncc56)c(C=C)cc34)CC2)C1 [Example 68]	16	12	45		
C=CC(=O)N1CC2(CCN(c3nc(N4CCN(CCOC)CC4)nc4c(OCC(F)(F)F)c(-c5c(C)ccc6[nH]ncc56)c(C=C)cc34)CC2)C1 [Example 59]	26	8.4	63		
C=CC(=O)N1CC2(CCN(c3nc(OC[C@@H]4CCCN4C)nc4c(OCC(F)F)c(-c5c(C)ccc6[nH]ncc56)c(C=C)cc34)CC2)C1 [Example 14]			50	8.8	6.1
C=CC(=O)N1CC2(CCN(c3nc(OC4CCN(C)CC4)nc4c(OCc5ccccc5)c(-c5c(C)ccc6[nH]ncc56)c(C=C)cc34)CC2)C1 [Example 61]	17	8.8	56		
C=CC(=O)N1CC2(CCN(c3nc(OC4CCN(CC)CC4)nc4c(OC)c(-c5c(Cl)ccc6[nH]ncc56)c(C=C)cc34)CC2)C1 [Reference example 1, reference compound]	32	22	37		
C=CC(=O)N1CC2(CCN(c3nc(OC4CCN(CCCOC(F)(F)F)CC4)nc4c(OCC(F)(F)F)c(-c5c(C)ccc6[nH]ncc56)c(C=C)cc34)CC2)C1 [Example 83]	51	16	108		
C=CC(=O)N1CC2(CCN(c3nc(OC4CCN(C5CC5)CC4)nc4c(OCC)c(-c5c(C)ccc6[nH]ncc56)c(C5CC5)cc34)CC2)C1 [Example 43]			50	6	5
C=CC(=O)N1CC2(CCN(c3nc(OC4CCN(CCOCC5CC5)CC4)nc4c(OCC(F)(F)F)c(-c5c(C)ccc6[nH]ncc56)c(C=C)cc34)CC2)C1 [Ex 41]	14	6.2	42		
C=CC(=O)N1CC2(CCN(c3nc(OC4CCN(S(C)(=O)=O)CC4)nc4c(OCC(F)(F)F)c(-c5c(C)ccc6[nH]ncc56)c(C=C)cc34)CC2)C1 [Example 86]	37	12	72		
C=CC(=O)N1CC2(CCN(c3nc(OC4CCN(C)CC4)nc4c(OC5CCC5)c(-c5c(C)ccc6[nH]ncc56)c(C=C)cc34)CC2)C1 [Example 17]			34	12	4.9
C=CC(=O)N1CC2(CCN(c3nc(OC4CCN(CCN(CC)CC)CC4)nc4c(OCC(F)(F)F)c(-c5c(C)ccc6[nH]ncc56)c(C=C)cc34)CC2)C1 [Example 67]	18	11	43		
C=CC(=O)N1CC2(CCN(c3nc(OC4CCN(CCOC(C)C)CC4)nc4c(OCC(F)(F)F)c(-c5c(C)ccc6[nH]ncc56)c(C=C)cc34)CC2)C1 [Example 47]	17	5.6	43		
C=CC(=O)N1CC2(CCN(c3nc(OC4CCN(C)CC4)nc4c(OCc5ccc(OC(F)F)cc5)c(-c5c(C)ccc6[nH]ncc56)c(C=C)cc34)CC2)C1 [Example 66]	39	9.7	47		
